Measurements from publication PMC9026967, “Discovery of a Novel Inhibitor Structure of Mycobacterium tuberculosis Isocitrate Lyase” (Molecules, 2022).
Like-named read-outs stand apart in the source and are kept apart here.

Assays:
[1] = target: T1, M. tuberculosis isocitrate lyase (MtICL) (Mycobacterium tuberculosis, UniProt P9WKK7); assay: biochemical
T1 construct: gene icl
T1 sequence (P9WKK7 1-428): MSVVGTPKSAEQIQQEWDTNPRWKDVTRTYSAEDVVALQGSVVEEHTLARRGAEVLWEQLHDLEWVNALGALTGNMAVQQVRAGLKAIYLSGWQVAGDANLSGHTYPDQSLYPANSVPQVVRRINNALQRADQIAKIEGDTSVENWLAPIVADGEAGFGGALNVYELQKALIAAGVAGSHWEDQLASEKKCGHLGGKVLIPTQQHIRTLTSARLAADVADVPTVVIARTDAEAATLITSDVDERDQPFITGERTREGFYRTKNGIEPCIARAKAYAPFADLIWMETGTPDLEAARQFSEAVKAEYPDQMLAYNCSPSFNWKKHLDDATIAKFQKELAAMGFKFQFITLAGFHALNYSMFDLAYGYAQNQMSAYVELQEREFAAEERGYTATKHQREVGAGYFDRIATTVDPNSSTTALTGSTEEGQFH

[2] = target: T1, M. tuberculosis isocitrate lyase (MtICL); assay: biochemical; remark: listed apart in the source

In the case of `O=c1ccc2ccc(O)c(O)c2o1` [MOL005118, Daphnetin], the IC50 [1] is reported as 24.4 µM.
Work on `O=C(O)C(=O)CBr` [3-BP, 3-bromopyruvic acid] yielded an IC50 [2] of 63.6 ± 2.8 µM.
Compound `C=C(CC(=O)O)C(=O)O` [IA, itaconic acid] has an IC50 [2] of 38.6 ± 0.8 µM.
